Data as given in ChEMBL document CHEMBL1649363, “Nitropyrrolins A-E, cytotoxic farnesyl-α-nitropyrroles from a marine-derived bacterium within the actinomycete family Streptomycetaceae” (J Nat Prod, 2010).
≈ marks a conversion by molar mass, not a printed value.

Columns and labels:
Staphylococcus aureus = assay: Antibacterial activity against methicillin-resistant Staphylococcus aureus; type: functional
HCT-116 = assay: Cytotoxicity against human HCT116 cells; type: functional, cell-based
[1] = Homo sapiens, HCT-116, read-out: IC50

Row | SMILES | MIC (Staphylococcus aureus) [µg/mL] | IC50 (HCT-116; [1]) [µM] | IC50 (HCT-116; hct-116)
1 | CC(C)=CCC/C(C)=C\CC/C(C)=C\Cc1cc[nH]c1 | 2.8 (≈ 10.3 µM) | 13.7 | 
2 | CC(C)=CCC/C(C)=C\CC/C(C)=C\Cc1c[nH]c([N+](=O)[O-])c1 | > 20 | 9.2 | 
3 | O=[N+]([O-])c1ccc[nH]1 | > 20 |  | Not Active
4 | O=[N+]([O-])c1cc[nH]c1 | > 20 |  | Not Active
5 | CC(C)=CCC/C(C)=C\CC/C(C)=C\Cc1ccc[nH]1 | > 20 | 24.4 | 
6 | CC(C)=CCC/C(C)=C/CC[C@](C)(O)[C@H](O)Cc1c[nH]c([N+](=O)[O-])c1 [NITROPYRROLIN A] | > 20 | 31.1 | 
7 | CC(C)=CCC/C(C)=C/CC[C@@]1(C)O[C@@H]1Cc1c[nH]c([N+](=O)[O-])c1 [NITROPYRROLIN B] | > 20 | 31 | 
8 | CC(C)=CCC/C(C)=C/CC[C@@](C)(Cl)[C@H](O)Cc1c[nH]c([N+](=O)[O-])c1 [NITROPYRROLIN C] | > 20 |  | Not Active
9 | CC(C)=CCC/C(C)=C/C/C=C(\C)[C@H](O)Cc1c[nH]c([N+](=O)[O-])c1 [NITROPYRROLIN D] | > 20 | 5.7 | 
10 | C/C(=C\CC[C@@](C)(Cl)[C@H](O)Cc1c[nH]c([N+](=O)[O-])c1)CC[C@@H](O)C(C)(C)O [NITROPYRROLIN E] | > 20 |  | Not Active
